Measured values published in patent US11285219B2, “Peptide-oligourea hybrid compounds” (UREKA SARL, priority 2019, dated 2022).
Numbered stars: 1 amine (or outer) side, 2 acyl side, 3 side chain; on linkers, the order of the positions; unused ones are H or OH. Bridge positions count the residues as written; N and C are the ends. Peptide text beside a SMILES is read from it. I, II: the chains in the order shown. X1 = C[C@@H](CNC(=O)N[C@@H](C)CNC(=O)[*:2])NC(=O)NC[C@H](C)N[*:1]; X7 = C[C@@H](CNC(=O)N[C@@H](C)CNC(=O)[*:1])NC(=O)NC[C@H](C)N[*:2]; X6 = CC(CNC(=O)NC(C)CNC(=O)[*:1])NC(=O)NCC(C)N[*:2]

Target: T1, mouse GLP-1 receptor endogenously expressed in βTC6 cells (Mus musculus, UniProt O35659)
T1 construct: host or cells: βTC6 cells
T1 sequence (O35659 22-463): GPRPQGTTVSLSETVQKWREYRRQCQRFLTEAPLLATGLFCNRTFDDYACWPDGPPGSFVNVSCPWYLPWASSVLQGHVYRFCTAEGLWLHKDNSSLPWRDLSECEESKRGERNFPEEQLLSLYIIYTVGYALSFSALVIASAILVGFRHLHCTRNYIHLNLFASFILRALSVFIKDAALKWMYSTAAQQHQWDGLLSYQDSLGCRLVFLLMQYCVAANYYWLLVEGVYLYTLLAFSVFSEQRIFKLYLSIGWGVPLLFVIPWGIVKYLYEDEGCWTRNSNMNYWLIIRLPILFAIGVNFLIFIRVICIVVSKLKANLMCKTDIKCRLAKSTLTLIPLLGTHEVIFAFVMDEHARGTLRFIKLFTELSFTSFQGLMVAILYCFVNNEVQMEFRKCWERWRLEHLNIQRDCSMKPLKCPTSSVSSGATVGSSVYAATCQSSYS
Assay: cAMP production functional assay (HTRF), agonist activity at GLP-1R
Format: cell-based
Conditions: cAMP production; Table 1
Method: The agonistic activity of these hybrids were obtained by functional assays using cells expressing the […] and by measuring the receptor-mediated cAMP produced (see supporting information).
In vitro pharmacology (EC50). […] Following incubation, the cells were lysed and the fluorescence acceptor (D2-labeled cAMP) and fluorescence donor (anti-cAMP antibody labeled with europium cryptate) were added.

SMILES | Potency (%), percentage of potency compare to GLP-1-G^2 [%]
CC[C@H](C)[C@H](NC(=O)[C@H](Cc1ccccc1)NC(=O)[C@H](CCC(=O)O)NC(=O)[C@H](CCCCN)NC(=O)[C@H](C)NC(=O)[C@H](C)NC(=O)[C@H](CCC(N)=O)NC(=O)CNC(=O)[C@H](CCC(=O)O)NC(=O)[C@H](CC(C)C)NC(=O)NC[C@H](C)NC(=O)NC[C@H](C)NC(=O)NC[C@H](C)NC(=O)[C@H](CC(=O)O)NC(=O)[C@H](CO)NC(=O)[C@@H](NC(=O)[C@H](Cc1ccccc1)NC(=O)[C@@H](NC(=O)CNC(=O)[C@H](CCC(=O)O)NC(=O)CNC(=O)[C@@H](N)Cc1c[nH]cn1)[C@@H](C)O)[C@@H](C)O)C(=O)N[C@@H](C)C(=O)N[C@@H](Cc1c[nH]c2ccccc12)C(=O)N[C@@H](CC(C)C)C(=O)N[C@H](C(=O)N[C@@H](CCCCN)C(=O)NCC(=O)N[C@@H](CCCNC(=N)N)C(=O)NCC(N)=O)C(C)C [Compound 3, GG2[A^UA^UA^U]^10-13] | 0.04
CC[C@H](C)[C@H](NC(=O)[C@H](Cc1ccccc1)NC(=O)[C@H](CCC(=O)O)NC(=O)[C@H](CCCCN)NC(=O)[C@H](C)NC(=O)[C@H](C)NC(=O)[C@H](CCC(N)=O)NC(=O)CNC(=O)[C@H](CCC(=O)O)NC(=O)NC[C@H](C)NC(=O)NC[C@H](C)NC(=O)NC[C@H](C)NC(=O)[C@@H](NC(=O)[C@H](CC(=O)O)NC(=O)[C@H](CO)NC(=O)[C@@H](NC(=O)[C@H](Cc1ccccc1)NC(=O)[C@@H](NC(=O)CNC(=O)[C@H](CCC(=O)O)NC(=O)CNC(=O)[C@@H](N)Cc1c[nH]cn1)[C@@H](C)O)[C@@H](C)O)C(C)C)C(=O)N[C@@H](C)C(=O)N[C@@H](Cc1c[nH]c2ccccc12)C(=O)N[C@@H](CC(C)C)C(=O)N[C@H](C(=O)N[C@@H](CCCCN)C(=O)NCC(=O)N[C@@H](CCCNC(=N)N)C(=O)NCC(N)=O)C(C)C [Compound 4, GG2[A^UA^UA^U]^11-14] (I: EGQAAKEFIAWLVKGRG-NH2 / II: H-HGEGTFTSDV; linker I:N-II:C via X7) | 0.2
CC[C@H](C)[C@H](NC(=O)[C@H](Cc1ccccc1)NC(=O)[C@H](CCC(=O)O)NC(=O)[C@H](CCCCN)NC(=O)[C@H](C)NC(=O)[C@H](C)NC(=O)[C@H](CCC(N)=O)NC(=O)CNC(=O)NCC(C)NC(=O)NCC(C)NC(=O)NCC(C)NC(=O)[C@H](CO)NC(=O)[C@@H](NC(=O)[C@H](CC(=O)O)NC(=O)[C@H](CO)NC(=O)[C@@H](NC(=O)[C@H](Cc1ccccc1)NC(=O)[C@@H](NC(=O)CNC(=O)[C@H](CCC(=O)O)NC(=O)CNC(=O)[C@@H](N)Cc1c[nH]cn1)[C@@H](C)O)[C@@H](C)O)C(C)C)C(=O)N[C@@H](C)C(=O)N[C@@H](Cc1c[nH]c2ccccc12)C(=O)N[C@@H](CC(C)C)C(=O)N[C@H](C(=O)N[C@@H](CCCCN)C(=O)NCC(=O)N[C@@H](CCCNC(=N)N)C(=O)NCC(N)=O)C(C)C (stereo partly shown) [Compound 6, GG2[A^UA^UA^U]^12-15] (I: GQAAKEFIAWLVKGRG-NH2 / II: H-HGEGTFTSDVS; linker I:N-II:C via X6) | <0.01
CC[C@H](C)[C@H](NC(=O)[C@H](Cc1ccccc1)NC(=O)[C@H](CCC(=O)O)NC(=O)[C@H](CCCCN)NC(=O)[C@H](C)NC(=O)[C@H](C)NC(=O)[C@H](CCC(N)=O)NC(=O)NCC(C)NC(=O)NCC(C)NC(=O)NCC(C)NC(=O)[C@H](CO)NC(=O)[C@H](CO)NC(=O)[C@@H](NC(=O)[C@H](CC(=O)O)NC(=O)[C@H](CO)NC(=O)[C@@H](NC(=O)[C@H](Cc1ccccc1)NC(=O)[C@@H](NC(=O)CNC(=O)[C@H](CCC(=O)O)NC(=O)CNC(=O)[C@@H](N)Cc1c[nH]cn1)[C@@H](C)O)[C@@H](C)O)C(C)C)C(=O)N[C@@H](C)C(=O)N[C@@H](Cc1c[nH]c2ccccc12)C(=O)N[C@@H](CC(C)C)C(=O)N[C@H](C(=O)N[C@@H](CCCCN)C(=O)NCC(=O)N[C@@H](CCCNC(=N)N)C(=O)NCC(N)=O)C(C)C (stereo partly shown) [Compound 7, GG2[A^UA^UA^U]^13-16] (I: QAAKEFIAWLVKGRG-NH2 / II: H-HGEGTFTSDVSS; linker I:N-II:C via X6) | <0.01
CC[C@H](C)[C@H](NC(=O)[C@H](Cc1ccccc1)NC(=O)[C@H](CCC(=O)O)NC(=O)[C@H](CCCCN)NC(=O)[C@H](C)NC(=O)NC[C@H](C)NC(=O)NC[C@H](C)NC(=O)NC[C@H](C)NC(=O)[C@H](CC(C)C)NC(=O)[C@H](Cc1ccc(O)cc1)NC(=O)[C@H](CO)NC(=O)[C@H](CO)NC(=O)[C@@H](NC(=O)[C@H](CC(=O)O)NC(=O)[C@H](CO)NC(=O)[C@@H](NC(=O)[C@H](Cc1ccccc1)NC(=O)[C@@H](NC(=O)CNC(=O)[C@H](CCC(=O)O)NC(=O)CNC(=O)[C@@H](N)Cc1c[nH]cn1)[C@@H](C)O)[C@@H](C)O)C(C)C)C(=O)N[C@@H](C)C(=O)N[C@@H](Cc1c[nH]c2ccccc12)C(=O)N[C@@H](CC(C)C)C(=O)N[C@H](C(=O)N[C@@H](CCCCN)C(=O)NCC(=O)N[C@@H](CCCNC(=N)N)C(=O)NCC(N)=O)C(C)C [Compound 10, GG2[A^UA^UA^U]^15-18] (I: H-HGEGTFTSDVSSYL / II: AKEFIAWLVKGRG-NH2; linker I:C-II:N via X1) | 0.2
CC[C@H](C)[C@H](NC(=O)[C@H](Cc1ccccc1)NC(=O)[C@H](CCC(=O)O)NC(=O)[C@H](CCCCN)NC(=O)NC[C@H](C)NC(=O)NC[C@H](C)NC(=O)NC[C@H](C)NC(=O)[C@H](CCC(=O)O)NC(=O)[C@H](CC(C)C)NC(=O)[C@H](Cc1ccc(O)cc1)NC(=O)[C@H](CO)NC(=O)[C@H](CO)NC(=O)[C@@H](NC(=O)[C@H](CC(=O)O)NC(=O)[C@H](CO)NC(=O)[C@@H](NC(=O)[C@H](Cc1ccccc1)NC(=O)[C@@H](NC(=O)CNC(=O)[C@H](CCC(=O)O)NC(=O)CNC(=O)[C@@H](N)Cc1c[nH]cn1)[C@@H](C)O)[C@@H](C)O)C(C)C)C(=O)N[C@@H](C)C(=O)N[C@@H](Cc1c[nH]c2ccccc12)C(=O)N[C@@H](CC(C)C)C(=O)N[C@H](C(=O)N[C@@H](CCCCN)C(=O)NCC(=O)N[C@@H](CCCNC(=N)N)C(=O)NCC(N)=O)C(C)C [Compound 12, GG2[A^UA^UA^U]^16-19] | 0.1
CC[C@H](C)[C@H](NC(=O)[C@H](Cc1ccccc1)NC(=O)[C@H](CCC(=O)O)NC(=O)NC[C@H](C)NC(=O)NC[C@H](C)NC(=O)NC[C@H](C)NC(=O)CNC(=O)[C@H](CCC(=O)O)NC(=O)[C@H](CC(C)C)NC(=O)[C@H](Cc1ccc(O)cc1)NC(=O)[C@H](CO)NC(=O)[C@H](CO)NC(=O)[C@@H](NC(=O)[C@H](CC(=O)O)NC(=O)[C@H](CO)NC(=O)[C@@H](NC(=O)[C@H](Cc1ccccc1)NC(=O)[C@@H](NC(=O)CNC(=O)[C@H](CCC(=O)O)NC(=O)CNC(=O)[C@@H](N)Cc1c[nH]cn1)[C@@H](C)O)[C@@H](C)O)C(C)C)C(=O)N[C@@H](C)C(=O)N[C@@H](Cc1c[nH]c2ccccc12)C(=O)N[C@@H](CC(C)C)C(=O)N[C@H](C(=O)N[C@@H](CCCCN)C(=O)NCC(=O)N[C@@H](CCCNC(=N)N)C(=O)NCC(N)=O)C(C)C [Compound 13, GG2[A^UA^UA^U]^17-20] | 0.01
